From PubChem BioAssay AID328 (DTP/NCI, 2004)
Inconclusive results and toxic doses are left out. The calls were made as follows: active = survival T/C of 150% or more; inactive = T/C below 125% in these data.

Tested on: BDF1 mice, P388 leukemia ip, median survival T/C
Experiment: NCI In Vivo Anticancer Drug Screen. Data for tumor model P388 Leukemia (intraperitoneal) in B6D2F1 (BDF1) mice
Conditions: endpoint: median survival time, higher = longer survival
Outline: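 Transplantable tumour in mice; compound vs vehicle dosing; survival scored; ratio of treated to control reported.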

[1] = dose: 50.0 mg/kg/injection, schedule: Q01DX009 (ip), vehicle: saline with Tween-80
[2] = dose: 100.0 mg/kg/injection, schedule: Q01DX009 (ip), vehicle: saline with Tween-80
[3] = dose: 200.0 mg/kg/injection, schedule: Q01DX009 (ip), vehicle: saline with Tween-80
[4] = dose: 50.0 mg/kg/injection, schedule: Q01DX005 (ip), vehicle: saline with Tween-80
[5] = dose: 100.0 mg/kg/injection, schedule: Q01DX005 (ip), vehicle: saline with Tween-80

Measured: T/C

Clc1cccc(NC2=NCCN=C(Nc3cccc(Cl)c3Cl)SS2)c1Cl
inactive: [1] 102 % of control | [2] 100 % of control | [3] 96 % of control

COC(=O)c1cc(=O)nc(N/N=C/c2ccco2)s1
inactive: [4] 94 % of control | [5] 89 % of control | dose: 200.0 mg/kg/injection, schedule: Q01DX005 (ip), vehicle: saline with Tween-80 87 % of control

CCSc1nc(=S)cc(C)[nH]1
inactive: dose: 100.0 mg/kg/injection, schedule: Q01DX009 (ip), vehicle: Klucel (hydroxypropylcellulose) (HPC) 105 % of control | dose: 100.0 mg/kg/injection, schedule: Q04DX003 (ip), vehicle: Klucel (hydroxypropylcellulose) (HPC) 95 % of control | dose: 200.0 mg/kg/injection, schedule: Q01DX009 (ip), vehicle: Klucel (hydroxypropylcellulose) (HPC) 100 % of control | dose: 200.0 mg/kg/injection, schedule: Q04DX003 (ip), vehicle: Klucel (hydroxypropylcellulose) (HPC) 95 % of control | dose: 400.0 mg/kg/injection, schedule: Q01DX009 (ip), vehicle: Klucel (hydroxypropylcellulose) (HPC) 105 % of control | dose: 400.0 mg/kg/injection, schedule: Q04DX003 (ip), vehicle: Klucel (hydroxypropylcellulose) (HPC) 104 % of control

CC(=O)OC12COC1CC(O)C1(C)C(=O)C(O)C3=C(C)C(O)CC(O)(C(OC(=O)c4ccccc4)C21)C3(C)C (stereo unspecified)
inactive: dose: 2.0 mg/kg/injection, schedule: Q01DX009 (ip), vehicle: alcohol 100 % of control | dose: 4.0 mg/kg/injection, schedule: Q01DX009 (ip), vehicle: alcohol 95 % of control | dose: 8.0 mg/kg/injection, schedule: Q01DX009 (ip), vehicle: alcohol 100 % of control | dose: 16.0 mg/kg/injection, schedule: Q01DX009 (ip), vehicle: alcohol 95 % of control

CC(N)c1ccccc1 (stereo unspecified) (tested in a mixture with another compound)
inactive: dose: 50.0 mg/kg/injection, schedule: Q01DX009 (ip), vehicle: saline 96 % of control | dose: 100.0 mg/kg/injection, schedule: Q01DX009 (ip), vehicle: saline 104 % of control | dose: 200.0 mg/kg/injection, schedule: Q01DX009 (ip), vehicle: saline 95 % of control

Cc1cc(C(C)(CC(C)C)c2ccc(O)c(C)c2)ccc1O
inactive: dose: 100.0 mg/kg/injection, schedule: Q01DX009 (ip), vehicle: gum acacia 120 % of control | dose: 200.0 mg/kg/injection, schedule: Q01DX009 (ip), vehicle: gum acacia 108 % of control

NCc1cc(=O)[nH]o1
inactive: dose: 2.5 mg/kg/injection, schedule: Q01DX005 (ip), vehicle: saline 98 % of control | dose: 5.0 mg/kg/injection, schedule: Q01DX005 (ip), vehicle: saline 106 % of control

COc1ccc2c(c1OC)C1C3CC=CC3C2C2=[N+]1CCc1cc3c(cc12)OCO3 (stereo unspecified)
inactive: dose: 3.12 mg/kg/injection, schedule: Q01DX009 (ip), vehicle: saline 95 % of control | dose: 6.25 mg/kg/injection, schedule: Q01DX009 (ip), vehicle: Klucel (hydroxypropylcellulose) (HPC) 114 % of control | dose: 6.25 mg/kg/injection, schedule: Q01DX009 (ip), vehicle: saline 100 % of control | dose: 12.5 mg/kg/injection, schedule: Q01DX009 (ip), vehicle: Klucel (hydroxypropylcellulose) (HPC) 90 % of control | dose: 12.5 mg/kg/injection, schedule: Q01DX009 (ip), vehicle: saline 108 % of control | dose: 18.0 mg/kg/injection, schedule: Q01DX009 (ip), vehicle: Klucel (hydroxypropylcellulose) (HPC) 86 % of control

CC1(C)CC(=O)C=C(OCCc2ccccc2)C1
inactive: [2] 100 % of control | [3] 109 % of control | dose: 400.0 mg/kg/injection, schedule: Q01DX009 (ip), vehicle: saline with Tween-80 118 % of control

CCN(CC)c1ccc([N+](=O)[O-])c2no[n+]([O-])c12
inactive: dose: 35.0 mg/kg/injection, schedule: Q01DX009 (ip), vehicle: saline with Tween-80 91 % of control | dose: 70.0 mg/kg/injection, schedule: Q01DX009 (ip), vehicle: saline with Tween-80 94 % of control

O=C(NC12CC3CC(CC(C3)C1)C2)Oc1ccccc1
inactive: [1] 102 % of control | [2] 102 % of control | [3] 93 % of control

CCN1CCC2(CC1)COCc1ccccc12
inactive: dose: 50.0 mg/kg/injection, schedule: Q04DX002 (ip), vehicle: saline with Tween-80 107 % of control | dose: 100.0 mg/kg/injection, schedule: Q04DX002 (ip), vehicle: saline with Tween-80 91 % of control

Cc1cc(S(=O)(=O)c2ccc(Cl)cc2)nc(S(=O)(=O)c2ccc(Cl)cc2)c1C#N
inactive: [4] 110 % of control | [5] 110 % of control
